Reference: patent US10774132B2, “Ultralong complementarity determining regions and uses thereof” (THE SCRIPPS RESEARCH INSTITUTE, priority 2012, dated 2020)

Tests used:
GLP-1 receptor (GLP-1R) = molecular target: T1, GLP-1 receptor (GLP-1R) (Homo sapiens, UniProt P43220); assay: GLP-1R activation, cAMP responsive luciferase reporter in HEK293 cells; type: cell-based; settings: HEK293 cells expressing GLP-1R, 24 h
T1 construct: expressed in transfected cells; host or cells: HEK293 (with cAMP responsive luciferase reporter gene)
Description: HEK293 cells expressing surface GLP-1R and cAMP responsive luciferase reporter gene were seeded in 384 well plates at a density of 5000 cells per well. […] Subsequently, luciferase assay was performed using One-Glo luciferase reagent according manufacture's instruction (Promega).
HEK293 cells expressing surface GLP-1R and cAMP responsive luciferase reporter gene were seeded in 384 well plates at a density of 5000 cells per well. After 24 h incubation at 37° C. with 5% CO2, cells were treated with various concentrations of peptides and BLV1H12-GLP-1 clip fusion proteins and incubated for another 24 h. Subsequently, luciferase assay was performed using One-Glo luciferase reagent according manufacture's instruction (Promega).

[1] = Pharmacokinetics in mice (ELISA of blood samples); type: in vivo; settings: 70 μg injected, BALB/c mice
Description: For PK study in mice, 70 μg of the immunoglobulin constructs described herein were injected into 3 BALB/c mice per group. Blood samples were drawn from time 0 to 14 days with extended intervals and analyzed by ELISA using anti-human IgG Fc antibody with horseradish peroxidase (HRP) labeled (KPL) and anti-6×His antibody (“6×His” disclosed as SEQ ID NO: 511) with HRP labeled (Clontech). Data were normalized by taking maximal concentration at the first time point (30 min).

Mouse NFS-60 cells = assay: Proliferation assay on mouse NFS-60 cells (AlamarBlue); type: cell-based; settings: 72 hours
Description: Mouse NFS-60 cells were obtained from American Type Culture Collection (ATCC), VA, and cultured in RPMI-1640 medium supplemented with 10% fetal bovine serum (FBS), 0.05 mM 2-mercapoethanol and 62 ng/ml human macrophage colony stimulating factor (M-CSF). For proliferation assay, mouse NFS-60 cells were washed three times with RPMI-1640 medium and resuspended in RPMI-1640 medium with 10% FBS and 0.05 mM 2-mercapoethanol at a density of 1.5×10^5 cells/ml. In 96-well plates, 100 μl of cell suspension was added into each well, followed by the addition of varied concentrations of bGCSF, BLV1H12 antibody, and the immunoglobulin constructs described herein, Equal volume of PBS buffer was added into the control wells. The plates were incubated at 37° C. in a 5% CO2 incubator for 72 hours. Cells were then treated with AlamarBlue (Invitrogen) ( 1/10 volume of cell suspension) for 4 hours at 37° C. Fluorescence at 595 nm for each well was read to indicate the cell viability.

Human mPB CD34+ cells = assay: Proliferative activity on human granulocyte progenitors (flow cytometry); type: cell-based; settings: 7 days, flow cytometry
Description: Human mPB CD34^+ cells were purchased from AllCells. Cells were resuspended in HSC expansion medium (StemSpan SFEM, StemCell Technologies) supplemented with 1× antibiotics and the following recombinant human cytokines: thrombopoietin, IL6, Flt3 ligand, and stem cell factor (100 ng/mL, R & D Systems), then plated in 96-well plates (1000 cells per well), with varied concentrations of BLV1H12-bGCSF fusion antibodies. Cells were cultured for 7 days at 37° C. in a 5% CO2 incubator, then analyzed by flow cytometry to measure cell number and expression of CD45ra and CD41. Cells were stained in staining medium (HBSS supplemented with 2% FBS and 2 mM EDTA) at 4° C. for 1 h with PECy7 anti-CD45ra and eFluor 450 anti-CD41 (eBiosciences), then washed with staining medium and analyzed. Multicolor analysis for cell phenotyping was performed on a LSR II flow cytometer (Becton Dickinson). FIGS. 10A-10E and Tables 9-10 show the human granulocyte progenitor cell proliferative activities of the Ab-GCSF fusion antibodies.

mice neutrophils = assay: Neutrophil counts in mice, 10th day after injection; type: in vivo; settings: blood stained and counted at the 10th day post-injection
Description: On the 10th day after injection of BLV1H12-bGCSF fusion antibodies into mice for PK study, blood samples were drawn from the mice and stained using the Diff Quick Staining Kit (Thermo Fisher Scientific, IL). Neutrophils and white blood cells were counted under microscope and the percentages of neutrophils were analyzed. FIGS. 12A-12B and Table 12 show proliferative activities of BLV1H12-bGCSF fusion antibodies on mice neutrophils that are blood stained and counted at the 10th day post-injection.

T1 sequence (P43220 24-463, species assumed): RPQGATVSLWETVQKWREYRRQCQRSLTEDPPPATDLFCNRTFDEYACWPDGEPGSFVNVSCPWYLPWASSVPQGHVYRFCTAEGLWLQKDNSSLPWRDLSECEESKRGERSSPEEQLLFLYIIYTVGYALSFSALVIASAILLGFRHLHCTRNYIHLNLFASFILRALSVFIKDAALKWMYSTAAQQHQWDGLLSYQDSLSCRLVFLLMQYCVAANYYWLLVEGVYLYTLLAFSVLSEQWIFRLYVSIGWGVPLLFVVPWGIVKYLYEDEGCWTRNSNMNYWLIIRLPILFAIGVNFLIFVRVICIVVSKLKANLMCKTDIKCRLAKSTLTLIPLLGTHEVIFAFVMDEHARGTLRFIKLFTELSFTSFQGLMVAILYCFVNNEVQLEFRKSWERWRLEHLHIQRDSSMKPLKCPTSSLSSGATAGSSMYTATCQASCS

Ab-Ex4: Exendin-4 with Factor Xa site and GGGGS linkers grafted into CDR3H of BLV1H12
RLU (cAMP responsive luciferase reporter) (GLP-1 receptor (GLP-1R); 1.26953 nM): 6120 RLU
RLU (cAMP responsive luciferase reporter) (GLP-1 receptor (GLP-1R); 2.53906 nM): 6360 RLU
RLU (cAMP responsive luciferase reporter) (GLP-1 receptor (GLP-1R); 5.07813 nM): 8500 RLU
RLU (cAMP responsive luciferase reporter) (GLP-1 receptor (GLP-1R); 10.15625 nM): 10420 RLU
RLU (cAMP responsive luciferase reporter) (GLP-1 receptor (GLP-1R); 20.3125 nM): 19340 RLU
RLU (cAMP responsive luciferase reporter) (GLP-1 receptor (GLP-1R); 40.625 nM): 27960 RLU
RLU (cAMP responsive luciferase reporter) (GLP-1 receptor (GLP-1R); 81.25 nM): 54800 RLU
RLU (cAMP responsive luciferase reporter) (GLP-1 receptor (GLP-1R); 162.5 nM): 90660 RLU
RLU (cAMP responsive luciferase reporter) (GLP-1 receptor (GLP-1R); 325 nM): 117900 RLU
RLU (cAMP responsive luciferase reporter) (GLP-1 receptor (GLP-1R); 650 nM): 134760 RLU
RLU (cAMP responsive luciferase reporter) (GLP-1 receptor (GLP-1R); 1300 nM): 159660 RLU

Ab-bGCSF L0: bovine G-CSF replacing the knob domain of BLV1H12 CDR3H, no linker (n=0), SEQ ID NO: 4
Percentage (blood level normalized to first time point, 30 min) ([1]; day 0.021): 100.00%
Percentage (blood level normalized to first time point, 30 min) ([1]; day 0.042): 91.12%
Percentage (blood level normalized to first time point, 30 min) ([1]; day 0.083): 91.24%
Percentage (blood level normalized to first time point, 30 min) ([1]; day 0.125): 91.56%
Percentage (blood level normalized to first time point, 30 min) ([1]; day 0.250): 61.22%
Percentage (blood level normalized to first time point, 30 min) ([1]; day 1.000): 44.22%
Percentage (blood level normalized to first time point, 30 min) ([1]; day 2.000): 36.36%
Percentage (blood level normalized to first time point, 30 min) ([1]; day 3.000): 27.38%
Percentage (blood level normalized to first time point, 30 min) ([1]; day 8.000): 11.53%
Percentage (blood level normalized to first time point, 30 min) ([1]; day 10.000): 12.44%
Percentage (blood level normalized to first time point, 30 min) ([1]; day 14.000): 14.35%
F.I. (fluorescence at 595 nm, AlamarBlue, cell viability) (Mouse NFS-60 cells; 0.09876 ng/mL): 1328
F.I. (fluorescence at 595 nm, AlamarBlue, cell viability) (Mouse NFS-60 cells; 0.29627 ng/mL): 1436
F.I. (fluorescence at 595 nm, AlamarBlue, cell viability) (Mouse NFS-60 cells; 0.88881 ng/mL): 1734.765
F.I. (fluorescence at 595 nm, AlamarBlue, cell viability) (Mouse NFS-60 cells; 2.66642 ng/mL): 2189
F.I. (fluorescence at 595 nm, AlamarBlue, cell viability) (Mouse NFS-60 cells; 7.99927 ng/mL): 2680
F.I. (fluorescence at 595 nm, AlamarBlue, cell viability) (Mouse NFS-60 cells; 23.9978 ng/mL): 2899
F.I. (fluorescence at 595 nm, AlamarBlue, cell viability) (Mouse NFS-60 cells; 71.9934 ng/mL): 2921
F.I. (fluorescence at 595 nm, AlamarBlue, cell viability) (Mouse NFS-60 cells; 215.9802 ng/mL): 3416
Number of CD45RA-CD41- (Human mPB CD34+ cells; 0.14225 ng/mL): 2601
Number of CD45RA-CD41- (Human mPB CD34+ cells; 0.42676 ng/mL): 2253
Number of CD45RA-CD41- (Human mPB CD34+ cells; 3.84088 ng/mL): 4399
Number of CD45RA-CD41- (Human mPB CD34+ cells; 11.52263 ng/mL): 7262
Number of CD45RA-CD41- (Human mPB CD34+ cells; 34.5679 ng/mL): 9902
Number of CD45RA-CD41- (Human mPB CD34+ cells; 103.7037 ng/mL): 11500
Number of CD45RA-CD41- (Human mPB CD34+ cells; 311.11111 ng/mL): 11500
Number of CD45RA-CD41- (Human mPB CD34+ cells; 933.33333 ng/mL): 11900
Number of CD45RA-CD41- (Human mPB CD34+ cells; 2800 ng/mL): 12100
Percentage of Neutrophil (mice neutrophils): 25.05

Ab-bGCSF L1: bovine G-CSF replacing the knob domain of BLV1H12 CDR3H with GGGGS linkers on both ends (n=1), SEQ ID NO: 5
Percentage (blood level normalized to first time point, 30 min) ([1]; day 0.021): 100.00%
Percentage (blood level normalized to first time point, 30 min) ([1]; day 0.042): 102.12%
Percentage (blood level normalized to first time point, 30 min) ([1]; day 0.083): 104.03%
Percentage (blood level normalized to first time point, 30 min) ([1]; day 0.125): 101.71%
Percentage (blood level normalized to first time point, 30 min) ([1]; day 0.250): 93.90%
Percentage (blood level normalized to first time point, 30 min) ([1]; day 1.000): 59.26%
Percentage (blood level normalized to first time point, 30 min) ([1]; day 2.000): 56.66%
Percentage (blood level normalized to first time point, 30 min) ([1]; day 3.000): 39.09%
Percentage (blood level normalized to first time point, 30 min) ([1]; day 8.000): 22.21%
Percentage (blood level normalized to first time point, 30 min) ([1]; day 10.000): 21.15%
Percentage (blood level normalized to first time point, 30 min) ([1]; day 14.000): 21.41%
F.I. (fluorescence at 595 nm, AlamarBlue, cell viability) (Mouse NFS-60 cells; 0.09808 ng/mL): 1412.387
F.I. (fluorescence at 595 nm, AlamarBlue, cell viability) (Mouse NFS-60 cells; 0.29424 ng/mL): 1654.776
F.I. (fluorescence at 595 nm, AlamarBlue, cell viability) (Mouse NFS-60 cells; 0.88272 ng/mL): 2082.718
F.I. (fluorescence at 595 nm, AlamarBlue, cell viability) (Mouse NFS-60 cells; 2.64816 ng/mL): 2550.674
F.I. (fluorescence at 595 nm, AlamarBlue, cell viability) (Mouse NFS-60 cells; 7.94449 ng/mL): 2997.807
F.I. (fluorescence at 595 nm, AlamarBlue, cell viability) (Mouse NFS-60 cells; 23.83346 ng/mL): 3277.812
F.I. (fluorescence at 595 nm, AlamarBlue, cell viability) (Mouse NFS-60 cells; 71.50039 ng/mL): 3308.383
F.I. (fluorescence at 595 nm, AlamarBlue, cell viability) (Mouse NFS-60 cells; 214.50117 ng/mL): 3868.075
Number of CD45RA-CD41- (Human mPB CD34+ cells; 0.30483 ng/mL): 4070
Number of CD45RA-CD41- (Human mPB CD34+ cells; 0.91449 ng/mL): 3601
Number of CD45RA-CD41- (Human mPB CD34+ cells; 2.74348 ng/mL): 4303
Number of CD45RA-CD41- (Human mPB CD34+ cells; 8.23045 ng/mL): 6404
Number of CD45RA-CD41- (Human mPB CD34+ cells; 24.69136 ng/mL): 9122
Number of CD45RA-CD41- (Human mPB CD34+ cells; 74.07407 ng/mL): 11200
Number of CD45RA-CD41- (Human mPB CD34+ cells; 222.22222 ng/mL): 11000
Number of CD45RA-CD41- (Human mPB CD34+ cells; 666.66667 ng/mL): 11400
Number of CD45RA-CD41- (Human mPB CD34+ cells; 2000 ng/mL): 11400
Number of CD45RA-CD41- (Human mPB CD34+ cells; 6000 ng/mL): 13200
Percentage of Neutrophil (mice neutrophils): 25.32
